In patent US20190255019A1, “NOVEL DOSAGE REGIMEN” (Biogen MA Inc., priority 2016, published 2019):
Like-named read-outs stand apart in the source and are kept apart here.

Experiments:
[1] = test system: trigeminal neuralgia; conditions: 200 mg bid, TN; cited from earlier work
[2] = target: Human Nav1.7 (Homo sapiens, UniProt Q15858); assay: In vitro assay quantifying block of hNav1.7 at mid point inactivation, read at free plasma Cmax; format: biochemical; conditions: at free plasma Cmax of 200 mg bid
Sequence of Human Nav1.7 (Q15858 whole entry): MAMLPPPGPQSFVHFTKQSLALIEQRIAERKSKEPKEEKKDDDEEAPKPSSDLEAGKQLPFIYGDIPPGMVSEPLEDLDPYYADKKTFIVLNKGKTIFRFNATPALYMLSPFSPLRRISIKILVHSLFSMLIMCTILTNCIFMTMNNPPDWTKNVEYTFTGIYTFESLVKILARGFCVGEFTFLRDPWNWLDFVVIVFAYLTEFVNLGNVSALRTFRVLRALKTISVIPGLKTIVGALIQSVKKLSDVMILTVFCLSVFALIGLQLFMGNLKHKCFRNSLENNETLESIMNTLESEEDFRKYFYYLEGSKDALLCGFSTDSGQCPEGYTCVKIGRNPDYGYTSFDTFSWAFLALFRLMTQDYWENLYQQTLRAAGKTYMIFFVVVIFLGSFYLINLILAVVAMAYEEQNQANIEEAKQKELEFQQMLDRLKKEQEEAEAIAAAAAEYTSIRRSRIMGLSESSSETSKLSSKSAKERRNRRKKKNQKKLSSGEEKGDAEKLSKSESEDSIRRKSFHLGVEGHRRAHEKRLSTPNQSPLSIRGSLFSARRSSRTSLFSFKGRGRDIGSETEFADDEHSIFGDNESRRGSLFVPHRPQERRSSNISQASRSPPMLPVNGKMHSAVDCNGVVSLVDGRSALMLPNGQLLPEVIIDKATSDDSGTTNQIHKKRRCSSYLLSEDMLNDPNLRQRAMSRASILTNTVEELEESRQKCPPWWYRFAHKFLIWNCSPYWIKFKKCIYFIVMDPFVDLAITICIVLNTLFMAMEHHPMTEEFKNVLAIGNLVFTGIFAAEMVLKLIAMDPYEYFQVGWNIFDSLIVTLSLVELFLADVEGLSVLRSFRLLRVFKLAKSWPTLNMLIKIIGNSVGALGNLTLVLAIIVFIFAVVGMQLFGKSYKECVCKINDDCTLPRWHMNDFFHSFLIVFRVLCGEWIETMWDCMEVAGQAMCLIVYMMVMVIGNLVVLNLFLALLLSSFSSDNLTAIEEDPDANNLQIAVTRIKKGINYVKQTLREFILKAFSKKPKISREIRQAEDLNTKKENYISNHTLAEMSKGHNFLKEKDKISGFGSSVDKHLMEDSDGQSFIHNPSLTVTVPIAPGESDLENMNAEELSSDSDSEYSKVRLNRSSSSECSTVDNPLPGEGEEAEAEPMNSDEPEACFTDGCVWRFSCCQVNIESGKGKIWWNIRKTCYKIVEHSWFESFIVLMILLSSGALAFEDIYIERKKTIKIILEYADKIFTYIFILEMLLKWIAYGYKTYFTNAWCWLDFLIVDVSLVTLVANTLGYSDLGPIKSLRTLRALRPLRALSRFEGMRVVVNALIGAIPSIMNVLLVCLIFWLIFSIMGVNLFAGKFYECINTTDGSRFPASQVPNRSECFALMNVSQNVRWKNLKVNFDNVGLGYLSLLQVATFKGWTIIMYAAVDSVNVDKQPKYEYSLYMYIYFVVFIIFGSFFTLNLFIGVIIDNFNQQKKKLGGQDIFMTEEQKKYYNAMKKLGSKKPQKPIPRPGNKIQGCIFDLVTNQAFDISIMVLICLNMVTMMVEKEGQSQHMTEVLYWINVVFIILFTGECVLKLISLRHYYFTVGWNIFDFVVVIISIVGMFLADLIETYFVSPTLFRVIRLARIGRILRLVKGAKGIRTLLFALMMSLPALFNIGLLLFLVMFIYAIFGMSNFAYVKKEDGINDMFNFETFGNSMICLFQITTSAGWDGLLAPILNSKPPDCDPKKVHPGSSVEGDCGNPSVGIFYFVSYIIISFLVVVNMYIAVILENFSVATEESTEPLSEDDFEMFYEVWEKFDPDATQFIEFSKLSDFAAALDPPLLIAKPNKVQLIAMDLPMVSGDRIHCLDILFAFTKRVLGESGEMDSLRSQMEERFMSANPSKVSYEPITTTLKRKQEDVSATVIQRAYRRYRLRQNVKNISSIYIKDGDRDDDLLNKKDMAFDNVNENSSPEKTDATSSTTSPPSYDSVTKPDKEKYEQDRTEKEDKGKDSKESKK
Description: In Table 1, free plasma CMax exposures of Example 1 obtained from modelling different dosing regimens were used to quantify the resulting amount of block at the primary target hNaV1.7. […] Doses of marketed drugs used in trigeminal neuralgia were compared using the same paradigm.

[3] = cited from earlier work

| SMILES | Clinical efficacy [1] | Human Nav1.7 % Inhibition [2] [%] | Cmax Free plasma ([3]; Lamotrigine 200 mg bid) [µM] | Free fraction ([3]; Lamotrigine 200 mg bid) [%] | Cmax Free plasma ([3]; Carbamazepine 200 mg qid) [µM] | Free fraction ([3]; Carbamazepine 200 mg qid) [%] |
| --- | --- | --- | --- | --- | --- | --- |
| Nc1nnc(-c2cccc(Cl)c2Cl)c(N)n1 [Lamotrigine] | NO EFFICACY | 6 | 5.8 | 44 |  |  |
| NC(=O)N1c2ccccc2C=Cc2ccccc21 [Carbamazepine] |  |  |  |  | 4 to 12 | 24 |
